{"source": "ChEMBL document CHEMBL4257571", "about": "“Discovery of 5-(2-chloro-4'-(1H-imidazol-1-yl)-[1,1'-biphenyl]-4-yl)-1H-tetrazole as potent and orally efficacious S-nitrosoglutathione reductase (GSNOR) inhibitors for the potential treatment of COPD” (Bioorg Med Chem Lett, 2018)", "key": {"[1]": {"biological_target": "Alcohol dehydrogenase class-3 (Homo sapiens, UniProt P11766)", "sequence (P11766 whole entry)": "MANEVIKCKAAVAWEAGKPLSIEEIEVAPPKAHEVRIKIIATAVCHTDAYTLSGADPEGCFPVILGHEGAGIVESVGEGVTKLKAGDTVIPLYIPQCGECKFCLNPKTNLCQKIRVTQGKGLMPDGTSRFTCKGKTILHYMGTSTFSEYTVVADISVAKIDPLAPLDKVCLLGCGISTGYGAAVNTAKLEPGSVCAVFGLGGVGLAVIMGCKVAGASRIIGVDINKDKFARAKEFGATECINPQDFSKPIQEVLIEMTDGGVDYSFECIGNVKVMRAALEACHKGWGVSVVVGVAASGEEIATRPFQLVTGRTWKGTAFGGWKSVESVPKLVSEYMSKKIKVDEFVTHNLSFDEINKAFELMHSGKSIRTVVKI", "experiment": "Inhibition of human GSNOR assessed as reduction in NADH consumption after 3 mins by spectrophotometric analysis"}, "[2]": {"biological_target": "Alcohol dehydrogenase class-3 (Mus musculus, UniProt P28474)", "sequence (P28474 whole entry)": "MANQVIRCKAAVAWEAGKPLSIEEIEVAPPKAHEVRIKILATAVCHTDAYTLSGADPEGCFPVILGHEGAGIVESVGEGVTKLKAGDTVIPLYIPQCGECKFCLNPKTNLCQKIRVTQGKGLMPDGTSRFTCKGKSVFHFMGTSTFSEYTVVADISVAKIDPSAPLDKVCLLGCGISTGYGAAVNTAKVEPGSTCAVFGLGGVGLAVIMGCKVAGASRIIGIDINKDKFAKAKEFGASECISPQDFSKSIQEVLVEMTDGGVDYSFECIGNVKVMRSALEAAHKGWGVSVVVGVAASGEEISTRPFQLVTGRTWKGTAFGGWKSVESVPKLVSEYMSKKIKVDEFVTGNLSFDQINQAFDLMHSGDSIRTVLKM", "experiment": "Inhibition of mouse GSNOR assessed as reduction in NADH consumption after 3 mins by spectrophotometric analysis"}, "[3]": {"experiment": "Metabolic stability of human liver microsomes assessed as parent compound remaining at 0.1 uM after 60 mins in presence of NADPH by LC/MS/MS analysis", "assay_type": "ADME, microsome", "details": "read-out: Stability"}, "[4]": {"experiment": "Metabolic stability of rat liver microsomes assessed as parent compound remaining at 0.1 uM after 60 mins in presence of NADPH by LC/MS/MS analysis", "assay_type": "ADME, microsome", "details": "read-out: Stability"}, "[5]": {"experiment": "Metabolic stability of mouse liver microsomes assessed as parent compound remaining at 0.1 uM after 60 mins in presence of NADPH by LC/MS/MS analysis", "assay_type": "ADME, microsome", "details": "read-out: Stability"}, "CYP1A2": {"biological_target": "T1, CYP1A2 (Homo sapiens, UniProt P05177)", "T1 sequence (P05177 whole entry)": "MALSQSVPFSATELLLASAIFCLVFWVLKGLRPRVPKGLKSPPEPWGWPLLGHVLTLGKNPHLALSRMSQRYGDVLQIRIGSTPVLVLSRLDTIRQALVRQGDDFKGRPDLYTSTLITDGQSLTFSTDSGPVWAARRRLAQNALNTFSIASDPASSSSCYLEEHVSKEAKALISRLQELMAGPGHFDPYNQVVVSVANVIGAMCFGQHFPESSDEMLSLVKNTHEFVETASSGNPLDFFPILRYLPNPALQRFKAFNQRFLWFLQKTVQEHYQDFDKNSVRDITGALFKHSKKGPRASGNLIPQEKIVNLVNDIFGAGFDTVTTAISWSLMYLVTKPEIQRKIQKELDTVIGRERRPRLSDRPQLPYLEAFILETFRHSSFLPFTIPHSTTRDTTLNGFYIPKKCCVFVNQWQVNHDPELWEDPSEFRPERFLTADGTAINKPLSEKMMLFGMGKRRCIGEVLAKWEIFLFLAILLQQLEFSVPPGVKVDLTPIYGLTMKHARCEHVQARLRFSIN", "experiment": "Inhibition of CYP1A2 in human liver microsomes at 10 uM after 20 mins in presence of NADPH by LC/MS/MS analysis relative to control", "assay_type": "ADME", "details": "liver microsomes"}, "CYP2D6": {"biological_target": "CYP2D6 (Homo sapiens, UniProt P10635)", "sequence (P10635 whole entry)": "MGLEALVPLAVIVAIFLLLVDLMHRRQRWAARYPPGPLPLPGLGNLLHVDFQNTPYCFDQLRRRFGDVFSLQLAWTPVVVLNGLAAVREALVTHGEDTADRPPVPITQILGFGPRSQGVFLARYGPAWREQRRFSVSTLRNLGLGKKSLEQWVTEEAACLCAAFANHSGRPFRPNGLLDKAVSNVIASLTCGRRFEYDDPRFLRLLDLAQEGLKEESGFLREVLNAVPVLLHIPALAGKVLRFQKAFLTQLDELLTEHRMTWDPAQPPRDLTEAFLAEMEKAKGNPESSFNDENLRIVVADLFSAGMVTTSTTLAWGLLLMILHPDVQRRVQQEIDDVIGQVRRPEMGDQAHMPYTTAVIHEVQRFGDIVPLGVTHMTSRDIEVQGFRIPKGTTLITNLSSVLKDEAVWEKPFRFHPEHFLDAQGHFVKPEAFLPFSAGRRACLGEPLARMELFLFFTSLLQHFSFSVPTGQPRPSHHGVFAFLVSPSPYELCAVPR", "experiment": "Inhibition of CYP2D6 in human liver microsomes at 10 uM after 20 mins in presence of NADPH by LC/MS/MS analysis relative to control", "assay_type": "ADME", "details": "liver microsomes"}, "CYP3A4": {"biological_target": "CYP3A4 (Homo sapiens, UniProt P08684)", "sequence (P08684 whole entry)": "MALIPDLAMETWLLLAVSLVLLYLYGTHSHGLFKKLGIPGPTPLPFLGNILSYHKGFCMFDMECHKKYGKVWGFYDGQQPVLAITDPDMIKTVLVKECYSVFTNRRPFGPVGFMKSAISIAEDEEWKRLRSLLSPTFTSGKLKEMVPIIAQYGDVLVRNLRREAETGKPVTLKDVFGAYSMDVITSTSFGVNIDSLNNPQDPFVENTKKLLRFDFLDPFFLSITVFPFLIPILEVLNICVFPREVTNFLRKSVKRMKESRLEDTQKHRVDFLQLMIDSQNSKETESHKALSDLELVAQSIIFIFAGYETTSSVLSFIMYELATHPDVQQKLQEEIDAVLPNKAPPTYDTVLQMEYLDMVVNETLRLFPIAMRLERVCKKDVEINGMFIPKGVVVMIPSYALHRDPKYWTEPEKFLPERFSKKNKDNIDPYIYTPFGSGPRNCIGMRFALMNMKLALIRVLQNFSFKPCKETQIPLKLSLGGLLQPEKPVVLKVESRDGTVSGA", "experiment": "Inhibition of CYP3A4 in human liver microsomes at 10 uM after 20 mins in presence of NADPH by LC/MS/MS analysis relative to control", "assay_type": "ADME", "details": "liver microsomes"}, "[6]": {"experiment": "Volume of distribution in C57/BL6 mouse at 3 mg/kg, iv", "assay_type": "ADME, organism-based", "details": "in vivo, read-out: Vz"}, "[7]": {"experiment": "Half life in C57/BL6 mouse at 3 mg/kg, iv", "assay_type": "ADME, organism-based", "details": "in vivo"}, "[8]": {"experiment": "AUC (0 to 24 hrs) in C57/BL6 mouse at 30 mg/kg, po", "assay_type": "ADME, organism-based", "set-up": "time < 24 hr, dose 30 mg/kg, route oral", "details": "in vivo"}, "[9]": {"experiment": "Tmax in C57/BL6 mouse at 30 mg/kg, po", "assay_type": "ADME, organism-based", "details": "in vivo"}, "[10]": {"experiment": "Oral bioavailability in C57/BL6 mouse at 30 mg/kg", "assay_type": "ADME, organism-based", "details": "in vivo"}, "[11]": {"experiment": "Protein binding in human plasma at 10 uM by LC/MS/MS based equilibrium dialysis analysis", "assay_type": "ADME, cell-free", "details": "read-out: PPB"}, "[12]": {"experiment": "Protein binding in mouse plasma at 10 uM by LC/MS/MS based equilibrium dialysis analysis", "assay_type": "ADME, cell-free", "details": "read-out: PPB (converted)"}, "[13]": {"experiment": "Apparent permeability in human Calu3 cells", "assay_type": "ADME, cell-based, Calu-3"}, "Homo sapiens [14]": {"species_on_record": "Homo sapiens", "experiment": "Inhibition of I2 receptor (unknown origin) at 10 uM relative to control"}, "Homo sapiens [15]": {"species_on_record": "Homo sapiens", "experiment": "Inhibition of BZD receptor (unknown origin) at 10 uM relative to control"}, "[16]": {"experiment": "Aqueous solubility of compound in acetate buffer at pH 4.5", "assay_type": "physicochemical"}, "[17]": {"experiment": "Aqueous solubility of compound in 0.1 N HCl", "assay_type": "physicochemical"}, "Mus musculus [18]": {"system": "Mus musculus", "experiment": "Anti-inflammatory activity in po dosed C57BL/6 mouse model of cigarette smoke induced chronic obstructive pulmonary disease assessed as reduction in cellular infiltration in bronchoalveolar lavage administered once daily for 7 days 1 hr prior to first smoke exposure and measured on day 8 after last smoke exposure post single drug treatment by hemocytometry", "assay_type": "functional, organism-based"}, "Mus musculus [19]": {"system": "Mus musculus", "experiment": "Anti-inflammatory activity in C57BL/6 mouse model of cigarette smoke induced chronic obstructive pulmonary disease assessed as total leukocyte count in bronchoalveolar lavage at 10 mg/kg, po administered once daily for 7 days 1 hr prior to first smoke exposure and measured on day 8 after last smoke exposure post single drug treatment by hemocytometry", "assay_type": "functional"}, "Mus musculus [20]": {"system": "Mus musculus", "experiment": "Anti-inflammatory activity in C57BL/6 mouse model of cigarette smoke induced chronic obstructive pulmonary disease assessed as neutrophil count in bronchoalveolar lavage at 3 mg/kg, po administered once daily for 7 days 1 hr prior to first smoke exposure and measured on day 8 after last smoke exposure post single drug treatment by Leishman's staining based assay", "assay_type": "functional"}, "Mus musculus [21]": {"system": "Mus musculus", "experiment": "Anti-inflammatory activity in C57BL/6 mouse model of cigarette smoke induced chronic obstructive pulmonary disease assessed as neutrophil count in bronchoalveolar lavage at 10 mg/kg, po administered once daily for 7 days 1 hr prior to first smoke exposure and measured on day 8 after last smoke exposure post single drug treatment by Leishman's staining based assay", "assay_type": "functional"}, "Mus musculus [22]": {"system": "Mus musculus", "experiment": "Anti-inflammatory activity in C57BL/6 mouse model of cigarette smoke induced chronic obstructive pulmonary disease assessed as neutrophil count in bronchoalveolar lavage at 30 mg/kg, po administered once daily for 7 days 1 hr prior to first smoke exposure and measured on day 8 after last smoke exposure post single drug treatment by Leishman's staining based assay", "assay_type": "functional"}, "Mus musculus [23]": {"system": "Mus musculus", "experiment": "Anti-inflammatory activity in C57BL/6 mouse model of cigarette smoke induced chronic obstructive pulmonary disease assessed as macrophages count in bronchoalveolar lavage at 3 mg/kg, po administered once daily for 7 days 1 hr prior to first smoke exposure and measured on day 8 after last smoke exposure post single drug treatment by Leishman's staining based assay", "assay_type": "functional"}, "Mus musculus [24]": {"system": "Mus musculus", "experiment": "Anti-inflammatory activity in C57BL/6 mouse model of cigarette smoke induced chronic obstructive pulmonary disease assessed as macrophages count in bronchoalveolar lavage at 30 mg/kg, po administered once daily for 7 days 1 hr prior to first smoke exposure and measured on day 8 after last smoke exposure post single drug treatment by Leishman's staining based assay", "assay_type": "functional"}, "[25]": {"biological_target": "T2, Carbonyl reductase [NADPH] 1 (Homo sapiens) (UniProt P16152)", "T2 sequence (whole entry)": "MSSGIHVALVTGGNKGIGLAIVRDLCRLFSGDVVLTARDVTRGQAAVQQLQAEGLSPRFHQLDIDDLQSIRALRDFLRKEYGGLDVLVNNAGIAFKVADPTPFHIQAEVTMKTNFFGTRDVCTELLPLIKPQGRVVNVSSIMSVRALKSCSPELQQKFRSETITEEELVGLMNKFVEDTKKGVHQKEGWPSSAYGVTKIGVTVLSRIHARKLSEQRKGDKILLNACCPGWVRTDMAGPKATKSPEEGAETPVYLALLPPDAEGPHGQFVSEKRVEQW", "experiment": "Inhibition of CBR1 (unknown origin) assessed as reduction in NADP+ production at 10 uM by spectrophotometric analysis relative to control"}}, "note": "pIC50: −log10 of the molar value.", "data": [{"smiles": "Clc1cc(-c2nnn[nH]2)ccc1-c1ccc(-n2ccnc2)cc1", "values": [{"measurement": "pIC50", "setting": "[1]", "result": 8.04}, {"measurement": "pIC50", "setting": "[2]", "result": 8.15}, {"measurement": "remaining at 1 h, 0.1 µM", "setting": "[3]", "result": 100, "unit": "%"}, {"measurement": "remaining at 1 h, 0.1 µM", "setting": "[4]", "result": 83, "unit": "%"}, {"measurement": "remaining at 1 h, 0.1 µM", "setting": "[5]", "result": 43, "unit": "%"}, {"measurement": "inhibition at 20 min, 10 µM", "setting": "CYP1A2", "result": 32, "unit": "%"}, {"measurement": "inhibition at 20 min, 10 µM", "setting": "CYP2D6", "result": 52, "unit": "%"}, {"measurement": "inhibition at 20 min, 10 µM", "setting": "CYP3A4", "result": 55, "unit": "%"}, {"measurement": "Vd", "setting": "[6]", "result": 0.41, "unit": "L/kg"}, {"measurement": "half-life", "setting": "[7]", "result": 3.4, "unit": "h"}, {"measurement": "AUC(0-t) at 24 h", "setting": "[8]", "result": 69900, "unit": "ng·h/mL"}, {"measurement": "Tmax", "setting": "[9]", "result": 2, "unit": "h"}, {"measurement": "bioavailability", "setting": "[10]", "result": 21, "unit": "%"}, {"measurement": "fraction unbound at 10 µM", "setting": "[11]", "result": "< 0.005"}, {"measurement": "fraction unbound at 10 µM", "setting": "[12]", "result": 0.015}, {"measurement": "Papp", "setting": "[13]", "result": 8.23, "unit": "×10⁻⁶ cm/s"}, {"measurement": "inhibition", "setting": "Homo sapiens [14]", "result": 88, "unit": "%"}, {"measurement": "inhibition", "setting": "Homo sapiens [15]", "result": 50, "unit": "%"}, {"measurement": "solubility", "setting": "[16]", "result": 1.1, "unit": "µg/mL"}, {"measurement": "solubility", "setting": "[17]", "result": 20, "unit": "µg/mL"}, {"measurement": "Activity", "setting": "Mus musculus [18]", "result": "Dose-dependent effect"}, {"measurement": "Activity", "setting": "Mus musculus [19]", "result": 41, "unit": "%"}, {"measurement": "Activity", "setting": "Mus musculus [20]", "result": 19, "unit": "%"}, {"measurement": "Activity", "setting": "Mus musculus [21]", "result": 25, "unit": "%"}, {"measurement": "Activity", "setting": "Mus musculus [22]", "result": 37, "unit": "%"}, {"measurement": "Activity", "setting": "Mus musculus [23]", "result": 45, "unit": "%"}, {"measurement": "Activity", "setting": "Mus musculus [24]", "result": 61, "unit": "%"}, {"measurement": "inhibition", "setting": "[25]", "result": 24, "unit": "%"}]}]}
